In this test the test system is murine C2C12 myoblasts. Kind of test: Proliferation assay of C2C12 murine myoblasts (methylene blue, absorbance 655 nm). The class given is cell-based. Here is the method:
(§1) Myoblasts were seeded in 96-well tissue culture plates (Nunc, Roskilde, Denmark) at a cell density of 1000 cells per well in 200 μl of Dulbecco's modified Eagle's medium (DMEM, Invitrogen, California) supplemented with foetal bovine serum (FBS, 10% v/v, Invitrogen), penicillin (1×10^5 IU/l, Sigma, St Louis, Mo., USA) and streptomycin (100 mg/l, Sigma) buffered with NaHCO3 containing phenol red (7.22 nmol/l) as a pH indicator, and incubated overnight at 37° C. with 5% CO2. Medium was replaced with DMEM 10% FBS test medium containing 0, 0.001, 0.003, 0.01, 0.03, 0.1, 0.3, 1, 3 or 10 μg/ml oMSV65 in a semi-random arrangement of eight replicates (n=8) for each test medium. Plates were incubated at 37° C. with 5% CO2 for 72 hours, and then the medium was removed. The wells were washed with 200 μl of phosphate buffered saline (PBS, Oxoid, UK) and fixed with 100 μl of 10% formaldehyde, 0.9% NaCl solution for at least one hour. The fixative was then removed and 100 μl of 1% methylene blue stain in 0.01 M borate buffer (pH 8.5) was added to each well and incubated for 30 min at room temperature. Excess stain was removed by four sequential washes in borate buffer. Methylene blue was eluted from the cells by the addition of 100 μl 1:1 (v/v) ethanol/0.1 HCl. The plates were gently shaken and the absorbance was measured at 655 nm using a microplate photometer (FIGS. 3a and 3b).
as §1, with “0,” for “0, 0.001, 0.003,”, “0.01,” for “0.01, 0.03,”, “1” for “0.3, 1, 3”, “oMSV47” for “oMSV65”, “60” for “72”, “(FIG. 9).” for “(FIGS. 3a and 3b).”
Myoblasts were seeded in 96-well tissue culture plates (Nunc, Roskilde, Denmark) at a cell density of 1000 cells per well in […] of Dulbecco's modified Eagle's medium (DMEM, Invitrogen, California) supplemented with foetal bovine serum (FBS, 10% v/v, Invitrogen), penicillin (1×10^5 IU/l, Sigma, St Louis, Mo., USA) and streptomycin (100 mg/l, Sigma) buffered with NaHCO3 containing phenol red (7.22 nmol/l) as a pH indicator, and incubated overnight at 37° C. with 5% CO2. Medium was replaced with DMEM 2.5% FBS test medium containing 0, 0.01, 0.1, 1, 5 or 10 μg/ml of the respective peptides in a semi-random arrangement of eight replicates (n=8) for each test medium. Plates were incubated at 37° C. with 5% CO2 for 80 hours, and then the medium was removed. The wells were washed with 200 μl of phosphate buffered saline (PBS, Oxoid, UK) and fixed with 100 μl of 10% formaldehyde, 0.9% NaCl solution for at least one hour. The fixative was then removed and 100 μl of 1% methylene blue stain in 0.01 M borate buffer (pH 8.5) was added to each well and incubated for 30 min at room temperature. Excess stain was removed by four sequential washes in borate buffer. Methylene blue was eluted from the cells by the addition of 100 μl 1:1 (v/v) ethanol/0.1 HCl. […]

The mark [1] stands for this setting: roMSV47 1-10,000 ng/ml, 60 h, FIG. 10.

“Also recorded” adds a separate entry of the source.

In the case of “roMSV47: 47 amino acid C-terminal mature ovine MSV fragment (SEQ ID NO: 50), recombinant from E. coli (IIFLEVYIQFCSILGEAVFKRQSKSIHFCQNFKIIACLCNTAAFRMK; Ovis aries)”, the “proliferation of murine C2C12 myoblasts” value (0-10 μg/ml, DMEM 2.5% FBS, 80 h, FIG. 12A and FIG. 17) is “stimulate myoblast proliferation; also recorded: stimulate C2C12 cell growth in a dose dependent manner”. Under setting [1], the C2C12 myoblast proliferation entry was “stimulates murine C2C12 myoblast proliferation” and the “concentration of maximum proliferation enhancing activity” value fell in the range of 0.1 to 0.5 µg/mL. The “increase in myoblast proliferation” value (roMSV47, 60 h, FIG. 10) was “more than 2 fold”.

B1: roMSV65: 65 amino acid C-terminal peptide of ovine MSV (SEQ ID NO: 49) expressed as recombinant protein in E. coli (protein)
chain: VHFYTPPYGQWIFHKERKIIFLEVYIQFCSILGEAVFKRQSKSIHFCQNFKIIACLCNTAAFRMK
modifications: Ovis aries
As for B1, the “myoblast cell growth (proliferation)” value (roMSV65 0 to 10 μg/ml, 72 h, FIG. 3A) was “stimulate myoblast cell growth in a dose dependent manner”. Moreover, the “proliferation of murine C2C12 myoblasts” value (roMSV65 without myostatin, 48 h, FIG. 9) is recorded as “stimulated proliferation of murine myoblasts”.

Values taken from US8455448B2, “Myostatin isoform” (Myostin Therapeutics Pty Ltd, priority 2004, dated 2013).
